# Reference: patent US11186589B2, “Cyanoindoline derivatives as NIK inhibitors” (Janssen Pharmaceutica NV, priority 2016, dated 2021)
# System: KMS12-BM cells
# Test: Antiproliferative activity on KMS12-BM (NIK WT) multiple myeloma cells (CellTiter-Glo)
# Assay type: cell-based, human
# Conditions: Homo sapiens, KMS-12-BM, 96 h, 96 hr treatment, averaged values, read-out: KMS-12 Proliferation inhibition (IC50 (nM))
# Protocol: (§1) Determination of Antiproliferative Activity on JJN-3 (NIK Translocated) and KMS12-BM (NIK WT) Multiple Myeloma Cells
# (§2) All compounds tested were dissolved in DMSO and further dilutions were made in culture medium. Final DMSO concentration was 0.3% (v/v) in cell proliferation assays. Viability was assessed using CellTiter-Glo cell viability assay kit (Promega). The human JJN-3 and KMS12-BM cells (DSMZ) were cultured in RPMI 1640 medium supplemented with 2 mM L-glutamine, and 10% fetal calf serum (PAA). Cells were routinely kept as suspension cells at 37° C. in a humidified 5% CO2 atmosphere. Cells were passaged at a seeding density of 0.2×10^6/ml twice a week. Cells were seeded in black tissue culture treated 96-well plates (Perkin Elmer). Densities used for plating ranged from 15000 (JJN3) to 20000 (KMS12BM) cells per well in a total volume of […]. Drugs and/or solvents were added (15 μl) to a final volume of 150 μl. Following 96 hr of treatment, plates were removed from the incubator and allowed to equilibrate to room temperature for approx 10 min. 75 μl CellTiter-Glo reagent was added to each well that was then covered (Perkin Elmer Topseal) and shaken on plate shaker for 10 min. Luminescence was measured on a HTS Topcount (Perkin Elmer). Within an experiment, the results for each treatment were the mean of 2 replicate wells. For initial screening purposes, compounds were tested using a 9 point dilution curve (serial 1:3 dilutions). For each experiment, controls (containing no drug) and a blank incubation (containing cells read at the time of compound addition) were run in parallel. The blank value was subtracted from all control and sample values. For each sample, the mean value for cell growth (in relative light units) was expressed as a percentage of the mean value for cell growth of the control.
row,IC50,Structure (SMILES)
1,> 10000 nM,CNC(=O)c1cc(Nc2nccc(-c3cc(C#N)c4c(c3)[C@@](C)(CO)CN4)n2)c(=O)n2c1CCC2 [Compound 44]
2,~5750 nM,COc1nc2c(cc1Nc1nccc(-c3cc(C#N)c4c(c3)C(C)(CC(F)F)CN4)n1)CN(C)CC2 (stereo not shown) [Compound 56]
3,~7760 nM,CC1(CO)COc2c(Nc3nccc(-c4cc(C#N)c5c(c4)[C@@](C)(CO)CN5)n3)cnn2C1 (mixture of isomers) [Compound 31b]

# The next lines start with the compound.
row,Structure (SMILES),IC50
1,Cc1nc2c(cc1Nc1nccc(-c3cc(C#N)c4c(c3)[C@@](C)(CO)CN4)n1)COCC2 [Compound 28],> 10000 nM
2,CNC(=O)CCn1ccc2c(Nc3nccc(-c4cc(C#N)c5c(c4)C(C)(C)CN5)n3)cc(Cl)cc21 [Compound 1c],1380 nM
3,CC(C)N1CCn2ncc(Nc3nccc(-c4cc(C#N)c5c(c4)[C@@](C)(CO)CN5)n3)c2C1 [Compound 18b],~5500 nM
4,C[C@]1(CO)CNc2c(C#N)cc(-c3ccnc(Nc4cc5c(nc4CCC4CC4)CCOC5)n3)cc21 [Compound 21],3890 nM

# System: JJN-3 cells
# Test: Antiproliferative activity on JJN-3 (NIK translocated) multiple myeloma cells (CellTiter-Glo)
# Assay type: cell-based, human
# Conditions: Homo sapiens, JJN-3, 96 h, JJN-3 (NIK translocated) cells, 96 hr treatment, averaged values, read-out: JJN-3 Proliferation inhibition (IC50 (nM))
# Protocol: as §1, §2
row,IC50,Structure (SMILES)
1,> 10000 nM,CNC(=O)c1cc(Nc2nccc(-c3cc(C#N)c4c(c3)[C@@](C)(CO)CN4)n2)c(=O)n2c1CCC2 [Compound 44]
2,3240 nM,COc1nc2c(cc1Nc1nccc(-c3cc(C#N)c4c(c3)C(C)(CC(F)F)CN4)n1)CN(C)CC2 (stereo not shown) [Compound 56]
3,~2140 nM,CC1(CO)COc2c(Nc3nccc(-c4cc(C#N)c5c(c4)[C@@](C)(CO)CN5)n3)cnn2C1 (mixture of isomers) [Compound 31b]

# Further lines, the compound ahead of its results:
row,Structure (SMILES),IC50
1,Cc1nc2c(cc1Nc1nccc(-c3cc(C#N)c4c(c3)[C@@](C)(CO)CN4)n1)COCC2 [Compound 28],851 nM
2,CNC(=O)CCn1ccc2c(Nc3nccc(-c4cc(C#N)c5c(c4)C(C)(C)CN5)n3)cc(Cl)cc21 [Compound 1c],26 nM
3,CC(C)N1CCn2ncc(Nc3nccc(-c4cc(C#N)c5c(c4)[C@@](C)(CO)CN5)n3)c2C1 [Compound 18b],288 nM
4,C[C@]1(CO)CNc2c(C#N)cc(-c3ccnc(Nc4cc5c(nc4CCC4CC4)CCOC5)n3)cc21 [Compound 21],81 nM

# Molecular target: NIK/MAP3K14 (Homo sapiens (Human), UniProt Q99558)
# Test: Inhibition of auto-phosphorylation of recombinant human NF-kappaB-inducing kinase (NIK/MAP3K14) activity (AlphaScreen)
# Assay type: biochemical
# Conditions: averaged values over all measurements on all batches, 25 microM ATP
# Protocol: Inhibition of Auto-Phosphorylation of Recombinant Human NF-kappaB-Inducing Kinase ([…]) Activity (AlphaScreen®)
# NIK/MAP3K14 auto-phosphorylation activity was measured using the AlphaScreen® (αscreen) format (Perkin Elmer). All compounds tested were dissolved in dimethyl sulfoxide (DMSO) and further dilutions were made in assay buffer. Final DMSO concentration was […] in assays. Assay buffer was 50 mM Tris pH 7.5 containing 1 mM EGTA (ethylene glycol tetraacetic acid), 1 mM DTT (dithiothreitol), 0.1 mM Na3VO4, 5 mM MgCl2, 0.01% Tween® 20. Assays were carried out in 384 well Alphaplates (Perkin Elmer). Incubations consisted of compound, 25 microM Adenosine-5′-triphosphate (ATP), and 0.2 nM NIK/MAP3K14. Incubations were initiated by addition of GST-tagged NIK/MAP3K14 enzyme, carried out for 1 h at 25° C. and terminated by addition of stop buffer containing anti-phospho-[…] Ser176/180 antibody. Protein A Acceptor and Glutathione-Donor beads were added before reading using an EnVision® Multilabel Plate Reader (Perkin Elmer). Signal obtained in the wells containing blank samples was subtracted from all other wells and IC50's were determined by fitting a sigmoidal curve to % inhibition of control versus Log10 compound concentration.
# Chain of NIK/MAP3K14 (Q99558 whole entry): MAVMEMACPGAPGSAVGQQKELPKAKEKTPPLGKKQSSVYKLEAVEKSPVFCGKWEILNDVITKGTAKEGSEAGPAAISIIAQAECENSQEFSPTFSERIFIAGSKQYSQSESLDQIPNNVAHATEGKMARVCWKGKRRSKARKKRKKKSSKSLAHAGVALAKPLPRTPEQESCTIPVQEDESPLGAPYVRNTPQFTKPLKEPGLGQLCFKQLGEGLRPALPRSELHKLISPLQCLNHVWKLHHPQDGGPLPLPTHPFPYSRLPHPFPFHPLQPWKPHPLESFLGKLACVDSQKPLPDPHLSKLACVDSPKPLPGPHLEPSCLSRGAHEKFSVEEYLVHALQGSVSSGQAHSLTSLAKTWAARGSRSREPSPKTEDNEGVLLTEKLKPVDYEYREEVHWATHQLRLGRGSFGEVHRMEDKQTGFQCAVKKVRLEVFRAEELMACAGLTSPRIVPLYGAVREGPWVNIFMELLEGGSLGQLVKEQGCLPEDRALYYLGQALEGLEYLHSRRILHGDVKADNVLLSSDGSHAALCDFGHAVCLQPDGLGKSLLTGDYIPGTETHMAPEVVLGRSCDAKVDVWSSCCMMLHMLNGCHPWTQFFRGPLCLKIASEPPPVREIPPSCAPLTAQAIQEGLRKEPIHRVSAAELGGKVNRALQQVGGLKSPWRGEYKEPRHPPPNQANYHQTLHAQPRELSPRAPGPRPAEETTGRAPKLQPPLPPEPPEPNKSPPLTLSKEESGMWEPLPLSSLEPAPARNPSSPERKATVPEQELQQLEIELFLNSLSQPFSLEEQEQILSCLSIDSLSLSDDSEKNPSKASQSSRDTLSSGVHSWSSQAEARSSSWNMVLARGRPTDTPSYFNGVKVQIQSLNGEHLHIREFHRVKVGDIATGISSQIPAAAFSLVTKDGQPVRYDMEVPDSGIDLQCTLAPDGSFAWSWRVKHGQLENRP
row,IC50,Structure (SMILES)
1,4.5 nM,CNC(=O)c1cc(Nc2nccc(-c3cc(C#N)c4c(c3)[C@@](C)(CO)CN4)n2)c(=O)n2c1CCC2 [Compound 44]
2,12 nM,COc1nc2c(cc1Nc1nccc(-c3cc(C#N)c4c(c3)C(C)(CC(F)F)CN4)n1)CN(C)CC2 (stereo not shown) [Compound 56]
3,5 nM,CC1(CO)COc2c(Nc3nccc(-c4cc(C#N)c5c(c4)[C@@](C)(CO)CN5)n3)cnn2C1 (mixture of isomers) [Compound 31b]

# More lines, now with the values behind:
row,Structure (SMILES),IC50
1,Cc1nc2c(cc1Nc1nccc(-c3cc(C#N)c4c(c3)[C@@](C)(CO)CN4)n1)COCC2 [Compound 28],1.1 nM
2,CNC(=O)CCn1ccc2c(Nc3nccc(-c4cc(C#N)c5c(c4)C(C)(C)CN5)n3)cc(Cl)cc21 [Compound 1c],30.2 nM
3,CC(C)N1CCn2ncc(Nc3nccc(-c4cc(C#N)c5c(c4)[C@@](C)(CO)CN5)n3)c2C1 [Compound 18b],6.2 nM
4,C[C@]1(CO)CNc2c(C#N)cc(-c3ccnc(Nc4cc5c(nc4CCC4CC4)CCOC5)n3)cc21 [Compound 21],3 nM

# System: P-IKKα levels in L363 cells
# Test: Effect of compounds on P-IKKα levels in L363 (NIK translocated multiple myeloma) cells
# Assay type: cell-based, human
# Conditions: Homo sapiens, L-363, 2 h, 2 hr treatment, averaged values, read-out: Inhibition of pIKKα_L-363 (IC50 (nM))
# Protocol: Effect of Compounds on P-IKKα Levels in L363 (NIK Translocated Multiple Myeloma) Cells
# All compounds tested were dissolved in DMSO and further dilutions were made in culture medium. Final DMSO concentration was 1% (v/v) in cell assays. The human L363 cells (ATCC) were cultured in RPMI 1640 medium supplemented with GlutaMax and 10% fetal calf serum (PAA). Cells were routinely maintained at densities of 0.2×10^6 cells per ml—1×10^6 cells per ml at 37° C. in a humidified 5% CO2 atmosphere. Cells were passaged twice a week splitting back to obtain the low density. Cells were seeded in 96 well plates (Nunc 167008) at 2×10^6 per ml media in a volume of 75 μl per well plus 25 μl 1 μg/ml recombinant human B-cell activating factor (BAFF/BLyS/TNFSF13B). Seeded cells were incubated at 37° C. in a humidified 5% CO2 atmosphere for 24 hr. Drugs and/or solvents were added (20 μl) to a final volume of 120 μl. Following 2 hr treatment plates were removed from the incubator and cell lysis was achieved by the addition of 30 μl 5× lysis buffer followed by shaking on a plate shaker at 4° C. for 10 min. At the end of this incubation lysed cells were centrifuged at 800×g for 20 min at 4° C. and the lysate was assessed for P-IKKα levels by sandwich immuno-assay carried out in anti-rabbit antibody coated Mesoscale plates. Within an experiment, the results for each treatment were the mean of 2 replicate wells. For initial screening purposes, compounds were tested using an 8 point dilution curve (serial 1:3 dilutions). For each experiment, controls (containing MG132 and BAFF but no test drug) and a blank incubation (containing MG132 and BAFF and 10 μM ADS125117, a test concentration known to give full inhibition) were run in parallel. The blank incubation value was subtracted from all control and sample values. To determine the IC50 a sigmoidal curve was fitted to the plot of % inhibition of control P-IKKα levels versus Log10 compound concentration.
row,IC50,Structure (SMILES)
1,35 nM,CNC(=O)c1cc(Nc2nccc(-c3cc(C#N)c4c(c3)[C@@](C)(CO)CN4)n2)c(=O)n2c1CCC2 [Compound 44]
2,76 nM,COc1nc2c(cc1Nc1nccc(-c3cc(C#N)c4c(c3)C(C)(CC(F)F)CN4)n1)CN(C)CC2 (stereo not shown) [Compound 56]
3,63 nM,CC1(CO)COc2c(Nc3nccc(-c4cc(C#N)c5c(c4)[C@@](C)(CO)CN5)n3)cnn2C1 (mixture of isomers) [Compound 31b]

# Further lines, the compound ahead of its results:
row,Structure (SMILES),IC50
1,Cc1nc2c(cc1Nc1nccc(-c3cc(C#N)c4c(c3)[C@@](C)(CO)CN4)n1)COCC2 [Compound 28],14 nM
2,CNC(=O)CCn1ccc2c(Nc3nccc(-c4cc(C#N)c5c(c4)C(C)(C)CN5)n3)cc(Cl)cc21 [Compound 1c],23 nM
3,CC(C)N1CCn2ncc(Nc3nccc(-c4cc(C#N)c5c(c4)[C@@](C)(CO)CN5)n3)c2C1 [Compound 18b],7 nM
4,C[C@]1(CO)CNc2c(C#N)cc(-c3ccnc(Nc4cc5c(nc4CCC4CC4)CCOC5)n3)cc21 [Compound 21],21 nM
